From article PMC5399005, “Degradation of lignin β‐aryl ether units in Arabidopsis thaliana expressing LigD, LigF and LigG from Sphingomonas paucimobilis SYK‐6” (Plant Biotechnology Journal, 2016)

Columns and labels:
Type in all cases: biochemical
[1] = target: T1, LigD (Sphingobium sp. SYK-6, UniProt Q01198); test: LC-MS product detection with leaf extract of transgenic Arabidopsis; conditions: 0.5 mM GGE, 1 mM NAD+, 1 mM GSH, 100 mM phosphate pH 7.5, room temperature, 16 h; product MPHPV
T1 sequence (Q01198 1-305): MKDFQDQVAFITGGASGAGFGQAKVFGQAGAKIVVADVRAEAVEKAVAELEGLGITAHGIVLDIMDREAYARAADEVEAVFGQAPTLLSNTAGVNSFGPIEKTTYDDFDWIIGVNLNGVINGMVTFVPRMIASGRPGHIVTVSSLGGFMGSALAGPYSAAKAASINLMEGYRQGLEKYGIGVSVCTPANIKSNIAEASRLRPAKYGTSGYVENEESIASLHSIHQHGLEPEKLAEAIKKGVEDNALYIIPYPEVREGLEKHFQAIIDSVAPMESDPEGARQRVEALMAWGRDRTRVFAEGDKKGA

[2] = target: T2, LigG (Sphingomonas paucimobilis, UniProt Q9WXJ9); test: as above; conditions: GS-HPV from LigF reaction mixture, GSH, 100 mM phosphate pH 7.5
T2 construct: codon-optimised, barley alpha-amylase signal peptide added, expressed in Arabidopsis (crude leaf extract)
T2 sequence (Q9WXJ9 1-265): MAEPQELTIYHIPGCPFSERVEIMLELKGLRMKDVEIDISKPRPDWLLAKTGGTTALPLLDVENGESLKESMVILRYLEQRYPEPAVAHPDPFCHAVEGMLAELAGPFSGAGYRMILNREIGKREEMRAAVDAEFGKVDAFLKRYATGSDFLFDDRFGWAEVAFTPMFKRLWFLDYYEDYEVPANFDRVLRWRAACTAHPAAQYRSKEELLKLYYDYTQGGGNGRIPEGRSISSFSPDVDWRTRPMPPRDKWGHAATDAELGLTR

[3] = target: T3, LigF (Sphingobium sp. SYK-6, UniProt P30347); test: LC-MS product detection with leaf extract of transgenic Arabidopsis (also E. coli extract); conditions: 0.5 mM MPHPV, 1 mM GSH, 1 mM NAD+, 100 mM phosphate pH 7.5, room temperature, 16 h; product GS-HPV
T3 construct: also pETSTREP in E. coli BL21(DE3)
T3 sequence (P30347 1-257): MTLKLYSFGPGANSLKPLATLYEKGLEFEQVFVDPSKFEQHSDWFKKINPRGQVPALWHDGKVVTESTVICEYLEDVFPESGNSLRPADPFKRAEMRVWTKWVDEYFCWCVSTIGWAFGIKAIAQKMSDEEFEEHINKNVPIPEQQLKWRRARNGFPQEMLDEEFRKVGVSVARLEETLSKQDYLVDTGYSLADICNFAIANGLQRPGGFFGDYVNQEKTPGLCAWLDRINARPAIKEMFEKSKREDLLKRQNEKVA

## COc1cc(C(O)C(CO)Oc2ccccc2OC)ccc1O (stereo not drawn) [GGE]
[1]
  LC-MS product detection with leaf extract of transgenic Arabidopsis: GGE, MPHPV and GS‐HPV were used as a substrate to monitor the catalytic function

## COc1cc(C(=O)C(CO)SC[C@H](NC(=O)CC[C@H](N)C(=O)O)C(=O)NCC(=O)O)ccc1O (stereo partly drawn) [GS-HPV]
[2]
  LC-MS product detection with leaf extract of transgenic Arabidopsis: The reaction mixture obtained contained mainly GS‐HPV and was used to test for LigG activity

## COc1cc(C(=O)C(CO)Oc2ccccc2OC)ccc1O (stereo not drawn) [S4, MPHPV]
[3]
  LC-MS product detection with leaf extract of transgenic Arabidopsis (also E. col): produced enzymatically by incubation of MPHPV with protein extracts of Escherichia coli expressing LigF
